From US20140213538A1, “LYSOPHOSPHATIDIC ACID RECEPTOR ANTAGONISTS” (InterMune, Inc., priority 2013, published 2014)

Target: T1, LPA/S1P GPCR of interest (Homo sapiens, UniProt Q92633)
T1 construct: host or cells: CHO
Experiment: Beta-Arrestin based assay (PathHunter)
Format: cell-based
Experimental: CMV promoter based DNA constructs expressing a fusion of the LPA/S1P GPCR of interest and ProLink™ tag were used to transfect EA Parental™ CHO cells (DiscoverX, Fremont, Calif.) using a FuGENE® transfection kit (Roche). Beta-Arrestin based assays were conducted 24-48 hrs post transfection using PathHunter® assay kits (DiscoverX, Fremont, Calif.). Agonist and antagonist assays were performed in quadruplicate in white 384 well plates. End point luminescence data were plotted and fit to a 4 parameter logistic function to obtain IC50 values. For antagonist assays, an IC80 concentration of agonist (LPA) equal to 0.5 micromolar was used.

T1 sequence (Q92633 whole entry): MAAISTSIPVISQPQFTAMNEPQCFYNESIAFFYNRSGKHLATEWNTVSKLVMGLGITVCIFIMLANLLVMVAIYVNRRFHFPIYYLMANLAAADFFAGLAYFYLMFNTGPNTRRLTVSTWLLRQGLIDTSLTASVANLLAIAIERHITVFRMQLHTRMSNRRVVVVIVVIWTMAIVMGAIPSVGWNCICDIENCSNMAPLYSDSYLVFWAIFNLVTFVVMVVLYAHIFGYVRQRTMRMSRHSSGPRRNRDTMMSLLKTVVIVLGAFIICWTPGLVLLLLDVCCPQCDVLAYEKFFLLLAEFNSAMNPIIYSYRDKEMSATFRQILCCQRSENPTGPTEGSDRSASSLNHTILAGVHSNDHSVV

C[C@@H](OC(=O)Nc1c(-c2ccc(C#CC(=O)N(C)CCC(=O)O)cc2)cnn1C)c1ccccc1 [IT466]
EC50: > 500 nM

Cc1nsc(-c2cc3sc(-c4ccc5c(C6(C(=O)O)CC6)coc5c4)cc3s2)c1NC(=O)O[C@H](C)c1ccccc1 [IT397]
EC50: > 500 nM

COc1cc(-c2cc3sc(-c4cnn(C)c4NC(=O)O[C@H](C)c4ccccc4)cc3s2)cnc1C1(C(=O)O)CC1 [IT275]
EC50: 50 to 500 nM

Cc1nsc(-c2cc3sc(-c4ccc(C5(C(=O)O)CC5)cc4C(F)(F)F)cc3s2)c1NC(=O)O[C@H](C)c1ccccc1 [IT248]
EC50: > 500 nM

C[C@@H](OC(=O)Nc1c(-c2cc3sc(-c4ccc(C5(C(=O)O)CC5)c5ccccc45)cc3s2)nnn1C)c1ccccc1 [IT321]
EC50: 50 to 500 nM

C[C@@H](OC(=O)Nc1c(-c2ccc(C#CC(=O)NCC(=O)O)cc2)cnn1C)c1ccccc1 [IT398]
EC50: > 500 nM

Cc1noc(-c2ccc(-c3ccc(Oc4nnn(C)c4C(=O)O)cc3)cc2)c1NC(=O)O[C@H](C)c1ccccc1 [IT471]
EC50: 50 to 500 nM

C[C@@H](OC(=O)Nc1c(-c2cc3sc(-c4cc(F)c(Oc5ncccc5C(=O)O)c(F)c4)cc3s2)cnn1C)c1ccccc1 [IT470]
EC50: < 50 nM

Cc1nsc(-c2cc3sc(-c4ccc(C5(C(=O)O)CC5)cc4F)cc3s2)c1NC(=O)O[C@H](C)c1ccccc1 [IT244]
EC50: < 50 nM

C[C@@H](OC(=O)Nc1c(-c2cc3sc(-c4ccc(CC(=O)O)c(C(F)(F)F)c4)cc3s2)nnn1C)c1ccccc1 [IT223]
EC50: 50 to 500 nM

C[C@@H](OC(=O)Nc1[nH]ncc1C#Cc1cc2sc(C3(C(=O)O)CC3)cc2s1)c1ccccc1 [IT127]
EC50: > 500 nM

C[C@@H](OC(=O)Nc1c(-c2ccc(-c3ccc(OC(C)(C)C(=O)O)c(F)c3)cc2)oc2ccccc12)c1ccccc1 [IT504]
EC50: 50 to 500 nM

COc1cc(C2(C(=O)O)CC2)ccc1-c1cc2sc(-c3cnn(C)c3NC(=O)O[C@H](C)c3ccccc3)cc2s1 [IT264]
EC50: 50 to 500 nM

Cc1noc(-c2ccc(NC(=O)c3csc(C4(C(=O)O)CC4)n3)cc2)c1NC(=O)O[C@H](C)c1ccccc1 [IT152]
EC50: > 500 nM

C[C@@H](OC(=O)Nc1c(-c2cc3sc(-c4ccc5scc(CC(=O)O)c5c4)cc3s2)cnn1C)c1ccccc1 [IT353]
EC50: 50 to 500 nM

Cc1cc(CC(=O)O)c(F)cc1-c1cc2sc(-c3cnn(C)c3NC(=O)O[C@H](C)c3ccccc3)cc2s1 [IT251]
EC50: 50 to 500 nM

Cc1cc(-c2cc3sc(-c4snc(C)c4NC(=O)O[C@H](C)c4ccccc4)cc3s2)ccc1CC(=O)O [IT292]
EC50: > 500 nM

C[C@@H](OC(=O)Nc1c(-c2cc3sc(-c4ccc(-c5nnc(CC(=O)O)o5)cc4)cc3s2)cnn1C)c1ccccc1 [IT206]
EC50: > 500 nM

Cc1cc(-c2cc3sc(-c4snc(C)c4NC(=O)O[C@H](C)c4ccccc4)cc3s2)ccc1C1(C(=O)O)CC1 [IT325]
EC50: 50 to 500 nM

COc1cc(-c2cc3sc(-c4snc(C)c4NC(=O)O[C@H](C)c4ccccc4)cc3s2)ccc1CC(=O)O [IT219]
EC50: > 500 nM

C[C@@H](OC(=O)Nc1c(-c2cc3sc(-c4cc(F)c(CC(=O)O)cc4F)cc3s2)nnn1C)c1ccccc1 [IT328]
EC50: 50 to 500 nM

COc1cc(-c2cc3sc(-c4nnn(C)c4NC(=O)O[C@H](C)c4ccccc4)cc3s2)cnc1C1(C(=O)O)CC1 [IT358]
EC50: 50 to 500 nM

C[C@@H](OC(=O)Nc1c(-c2cc3sc(-c4ccc(C5(C(=O)O)CC5)s4)cc3s2)cnn1C)c1ccccc1 [IT272]
EC50: 50 to 500 nM

Cc1cc(-c2cc3sc(-c4nnn(C)c4NC(=O)O[C@H](C)c4ccccc4)cc3s2)ccc1C1(C(=O)O)CC1 [IT324]
EC50: 50 to 500 nM

C[C@@H](OC(=O)Nc1c(-c2cc3sc(-c4ccc5scc(C6(C(=O)O)CC6)c5c4)cc3s2)cnn1C)c1ccccc1 [IT370]
EC50: > 500 nM

Cc1nsc(-c2cc3sc(-c4cc(F)c(CC(=O)O)cc4F)cc3s2)c1NC(=O)O[C@H](C)c1ccccc1 [IT326]
EC50: 50 to 500 nM

COc1cc(-c2cc3sc(-c4cnn(C)c4NC(=O)O[C@H](C)c4ccccc4)cc3s2)ccc1CC(=O)O [IT221]
EC50: 50 to 500 nM

C[C@@H](OC(=O)Nc1c(-c2cc3sc(-c4ccc(CC(=O)O)cc4C(F)(F)F)cc3s2)nnn1C)c1ccccc1 [IT363]
EC50: > 500 nM

C[C@@H](OC(=O)Nc1c(-c2cc3sc(-c4ccc5c(CC(=O)O)c[nH]c5c4)cc3s2)cnn1C)c1ccccc1 [IT377]
EC50: > 500 nM

C[C@@H](OC(=O)Nc1c(-c2cc3sc(-c4cc(F)c(CC(=O)O)cc4F)cc3s2)cnn1C)c1ccccc1 [IT327]
EC50: 50 to 500 nM

C[C@@H](OC(=O)Nc1c(-c2cc3sc(-c4ccc(C5(C(=O)O)CC5)cc4OC(F)(F)F)cc3s2)cnn1C)c1ccccc1 [IT385]
EC50: 50 to 500 nM

Cc1nsc(-c2cc3sc(-c4ccc5scc(C6(C(=O)O)CC6)c5c4)cc3s2)c1NC(=O)O[C@H](C)c1ccccc1 [IT373]
EC50: > 500 nM

C[C@@H](OC(=O)Nc1c(-c2cc3sc(-c4ccc5occ(C6(C(=O)O)CC6)c5c4)cc3s2)nnn1C)c1ccccc1 [IT335]
EC50: > 500 nM

C[C@@H](OC(=O)Nc1c(-c2cc3sc(-c4ccc(C5(C(=O)O)CC5)c(Cl)c4)cc3s2)cnn1C)c1ccccc1 [IT367]
EC50: < 50 nM

Cc1cc(-c2cc3sc(-c4cnn(C)c4NC(=O)O[C@H](C)c4ccccc4)cc3s2)c(F)cc1CC(=O)O [IT243]
EC50: > 500 nM

C[C@@H](OC(=O)Nc1c(-c2ccc(-c3ncc(C(=O)O)s3)cc2)nnn1C)c1ccccc1 [IT209]
EC50: > 500 nM

C[C@@H](OC(=O)Nc1c(-c2ccc(-c3cnc(C4(C(=O)O)CC4)s3)cc2)nnn1C)c1ccccc1 [IT278]
EC50: 50 to 500 nM

C[C@@H](OC(=O)Nc1c(-c2ccc(C#CC(=O)Nc3ccccc3C(=O)O)cc2)cnn1C)c1ccccc1 [IT430]
EC50: > 500 nM

Cc1nsc(-c2cc3sc(-c4ccc(CC(=O)O)c5ccccc45)cc3s2)c1NC(=O)O[C@H](C)c1ccccc1 [IT317]
EC50: > 500 nM

C[C@@H](NC(=O)Nc1c(C#Cc2cc3sc(C4(C(=O)O)CC4)cc3s2)cnn1C)c1ccccc1 [IT109]
EC50: < 50 nM

Cc1nsc(-c2cc3sc(-c4ccc(C5(C(=O)O)CC5)c(Cl)c4)cc3s2)c1NC(=O)O[C@H](C)c1ccccc1 [IT267]
EC50: 50 to 500 nM

Cc1nsc(-c2ccc(-c3cnc(C4(C(=O)O)CC4)s3)cc2)c1NC(=O)O[C@H](C)c1ccccc1 [IT202]
EC50: 50 to 500 nM

C[C@@H](OC(=O)Nc1c(-c2cc3sc(-c4ccc(CC(=O)O)cc4C(F)(F)F)cc3s2)cnn1C)c1ccccc1 [IT362]
EC50: > 500 nM

Cc1noc(-c2ccc3c(c2)CCCc2cc(CC(=O)O)ccc2-3)c1NC(=O)O[C@H](C)c1ccccc1 [IT280]
EC50: < 50 nM

COc1cc(CC(=O)O)c(F)cc1-c1cc2sc(-c3cnn(C)c3NC(=O)O[C@H](C)c3ccccc3)cc2s1 [IT410]
EC50: > 500 nM

Cc1noc(-c2ccc(-c3ccc(Oc4ccc(C(=O)O)cc4)cc3)cc2)c1NC(=O)O[C@H](C)c1ccccc1 [IT368]
EC50: > 500 nM

Cc1nsc(-c2ccc(-c3ncc(C4(C(=O)O)CC4)s3)cc2)c1NC(=O)O[C@H](C)c1ccccc1 [IT210]
EC50: > 500 nM

Cc1cc(-c2cc3sc(-c4nnn(C)c4NC(=O)O[C@H](C)c4ccccc4)cc3s2)ccc1CC(=O)O [IT250]
EC50: 50 to 500 nM

Cc1cc(-c2cc3sc(-c4cnn(C)c4NC(=O)O[C@H](C)c4ccccc4)cc3s2)c(F)cc1C1(C(=O)O)CC1 [IT339]
EC50: 50 to 500 nM

Cc1nsc(-c2cc3sc(-c4ccc(CC(=O)O)c(S(C)(=O)=O)c4)cc3s2)c1NC(=O)O[C@H](C)c1ccccc1 [IT433]
EC50: > 500 nM

C[C@@H](OC(=O)Nc1c(-c2ccc(-c3nnc(C4(C(=O)O)CC4)o3)cc2)nnn1C)c1ccccc1 [IT175]
EC50: > 500 nM
